# Results from ChEMBL document CHEMBL5465560, “Selectivity Literature for EUbOPEN Chemogenomic Library” (2024).
# Non-standard residues stand in square brackets, D forms with d. Residues, ends and D or L forms follow the SMILES beside them. Arg(Me) = CNC(=N)NCCC[C@H](N)C(=O)O; d3Pal = N[C@H](Cc1cccnc1)C(=O)O; azaGly = NNC(=O)O
# Assays:
# [1] = biological target: T1, Serine/threonine-protein kinase Nek1 (Homo sapiens) (UniProt Q96PY6); assay: Selectivity interaction (KinomeScan (DiscoverX)) EUB0001068a NEK1; conditions: at 1 µM
# T1 sequence (whole entry): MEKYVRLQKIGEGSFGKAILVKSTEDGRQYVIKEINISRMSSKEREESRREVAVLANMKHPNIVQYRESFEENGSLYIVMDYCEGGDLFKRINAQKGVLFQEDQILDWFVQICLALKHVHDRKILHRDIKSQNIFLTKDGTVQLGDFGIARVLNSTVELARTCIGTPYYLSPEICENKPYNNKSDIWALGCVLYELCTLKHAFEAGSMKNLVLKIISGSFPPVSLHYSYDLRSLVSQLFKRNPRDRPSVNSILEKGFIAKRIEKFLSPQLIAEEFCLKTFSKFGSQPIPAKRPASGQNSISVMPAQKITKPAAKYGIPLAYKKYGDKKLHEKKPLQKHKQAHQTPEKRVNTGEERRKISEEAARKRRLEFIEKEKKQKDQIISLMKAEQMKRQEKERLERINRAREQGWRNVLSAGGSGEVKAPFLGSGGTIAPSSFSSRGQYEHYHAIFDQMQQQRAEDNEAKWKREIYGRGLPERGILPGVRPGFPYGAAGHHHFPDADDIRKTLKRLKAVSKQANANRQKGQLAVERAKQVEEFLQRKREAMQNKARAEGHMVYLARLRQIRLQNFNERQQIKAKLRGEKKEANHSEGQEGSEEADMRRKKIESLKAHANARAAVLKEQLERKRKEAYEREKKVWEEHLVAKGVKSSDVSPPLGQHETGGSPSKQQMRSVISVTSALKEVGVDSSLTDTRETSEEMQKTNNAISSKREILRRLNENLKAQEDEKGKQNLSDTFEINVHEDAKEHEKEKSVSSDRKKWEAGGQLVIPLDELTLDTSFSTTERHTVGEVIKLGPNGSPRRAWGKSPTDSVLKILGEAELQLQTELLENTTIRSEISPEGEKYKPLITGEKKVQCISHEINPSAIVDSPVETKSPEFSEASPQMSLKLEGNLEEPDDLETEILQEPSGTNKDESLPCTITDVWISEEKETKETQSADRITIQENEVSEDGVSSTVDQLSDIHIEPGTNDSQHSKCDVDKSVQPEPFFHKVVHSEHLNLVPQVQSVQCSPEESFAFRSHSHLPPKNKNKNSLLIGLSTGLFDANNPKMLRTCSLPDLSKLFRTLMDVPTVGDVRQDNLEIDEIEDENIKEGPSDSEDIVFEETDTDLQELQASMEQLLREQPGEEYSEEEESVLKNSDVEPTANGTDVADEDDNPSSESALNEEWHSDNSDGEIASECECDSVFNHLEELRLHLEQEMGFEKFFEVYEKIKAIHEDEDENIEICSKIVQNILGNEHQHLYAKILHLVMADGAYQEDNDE
# [2] = biological target: T2, Cytoplasmic tyrosine-protein kinase BMX (Homo sapiens) (UniProt P51813); assay: Selectivity interaction (KinomeScan (DiscoverX)) EUB0001068a BMX; conditions: at 1 µM
# T2 sequence (whole entry): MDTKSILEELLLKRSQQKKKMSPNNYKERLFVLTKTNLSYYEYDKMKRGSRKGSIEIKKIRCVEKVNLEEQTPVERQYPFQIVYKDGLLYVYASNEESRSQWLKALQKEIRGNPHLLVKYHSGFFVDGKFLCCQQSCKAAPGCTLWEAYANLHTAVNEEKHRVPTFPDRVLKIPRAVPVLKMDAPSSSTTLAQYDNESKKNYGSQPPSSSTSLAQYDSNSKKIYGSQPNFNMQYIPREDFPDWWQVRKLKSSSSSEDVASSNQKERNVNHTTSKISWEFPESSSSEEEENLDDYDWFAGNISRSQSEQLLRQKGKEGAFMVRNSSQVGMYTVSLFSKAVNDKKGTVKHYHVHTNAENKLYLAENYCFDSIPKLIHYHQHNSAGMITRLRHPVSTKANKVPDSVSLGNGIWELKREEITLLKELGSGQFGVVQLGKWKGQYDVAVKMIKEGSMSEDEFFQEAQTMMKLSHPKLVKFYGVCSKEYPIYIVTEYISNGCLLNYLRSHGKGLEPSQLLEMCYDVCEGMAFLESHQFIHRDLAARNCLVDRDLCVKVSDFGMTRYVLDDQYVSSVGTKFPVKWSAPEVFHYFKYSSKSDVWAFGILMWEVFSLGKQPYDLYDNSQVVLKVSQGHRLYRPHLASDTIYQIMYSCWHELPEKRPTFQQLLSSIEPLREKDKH
# [3] = biological target: Serine/threonine-protein kinase 38-like (Homo sapiens) (UniProt Q9Y2H1); assay: Selectivity interaction (KinomeScan (DiscoverX)) EUB0001068a STK38L; conditions: at 1 µM
# [4] = biological target: Mitogen-activated protein kinase kinase kinase kinase 5 (Homo sapiens) (UniProt Q9Y4K4); assay: Selectivity interaction (33PanQinase Assay (Reaction Biology)) EUB0001107a MAP4K5
# Mitogen-activated protein kinase kinase kinase kinase 5 (Homo sapiens), sequence (Q9Y4K4 whole entry, looked up): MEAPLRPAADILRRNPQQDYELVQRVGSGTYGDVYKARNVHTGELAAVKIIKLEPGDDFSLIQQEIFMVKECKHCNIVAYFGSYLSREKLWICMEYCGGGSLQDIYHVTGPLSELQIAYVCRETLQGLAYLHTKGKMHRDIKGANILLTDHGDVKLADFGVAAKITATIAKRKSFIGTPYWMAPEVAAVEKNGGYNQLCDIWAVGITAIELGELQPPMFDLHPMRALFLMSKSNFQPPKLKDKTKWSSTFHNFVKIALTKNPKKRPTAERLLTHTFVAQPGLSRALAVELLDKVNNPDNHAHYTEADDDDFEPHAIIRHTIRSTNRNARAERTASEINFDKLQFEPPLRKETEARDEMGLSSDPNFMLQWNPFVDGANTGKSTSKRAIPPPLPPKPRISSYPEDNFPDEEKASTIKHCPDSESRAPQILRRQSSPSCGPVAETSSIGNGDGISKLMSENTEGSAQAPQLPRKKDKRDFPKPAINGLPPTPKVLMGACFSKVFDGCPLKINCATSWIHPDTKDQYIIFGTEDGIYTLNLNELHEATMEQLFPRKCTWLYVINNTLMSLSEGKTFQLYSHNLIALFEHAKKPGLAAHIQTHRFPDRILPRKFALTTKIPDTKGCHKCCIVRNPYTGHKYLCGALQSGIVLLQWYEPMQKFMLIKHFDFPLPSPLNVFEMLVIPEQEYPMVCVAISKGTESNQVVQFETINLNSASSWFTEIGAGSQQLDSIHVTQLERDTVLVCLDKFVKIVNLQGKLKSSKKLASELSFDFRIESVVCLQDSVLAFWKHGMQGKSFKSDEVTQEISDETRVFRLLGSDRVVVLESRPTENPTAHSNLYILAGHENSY
# [5] = biological target: Serine/threonine-protein kinase PAK 3 (Homo sapiens) (UniProt O75914); assay: Selectivity interaction (33PanQinase Assay (Reaction Biology)) EUB0001107a PAK3
# Serine/threonine-protein kinase PAK 3 (Homo sapiens), sequence (O75914 whole entry, looked up): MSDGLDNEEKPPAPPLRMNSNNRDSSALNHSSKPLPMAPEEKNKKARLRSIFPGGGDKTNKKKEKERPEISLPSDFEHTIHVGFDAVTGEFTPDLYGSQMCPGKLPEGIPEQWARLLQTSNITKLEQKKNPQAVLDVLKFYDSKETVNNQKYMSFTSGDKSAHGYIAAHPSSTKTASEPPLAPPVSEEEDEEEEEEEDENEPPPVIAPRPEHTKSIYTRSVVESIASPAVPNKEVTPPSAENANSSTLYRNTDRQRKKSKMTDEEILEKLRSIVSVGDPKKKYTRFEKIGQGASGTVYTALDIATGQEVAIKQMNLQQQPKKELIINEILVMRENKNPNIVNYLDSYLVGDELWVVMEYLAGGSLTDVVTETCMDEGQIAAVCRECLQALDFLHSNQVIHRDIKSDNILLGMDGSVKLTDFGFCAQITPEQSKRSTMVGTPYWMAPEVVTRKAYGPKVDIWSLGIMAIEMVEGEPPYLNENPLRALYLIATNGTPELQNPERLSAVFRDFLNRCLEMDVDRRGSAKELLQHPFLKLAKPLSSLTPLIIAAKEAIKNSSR
# [6] = biological target: Serine/threonine-protein kinase PAK 2 (Homo sapiens) (UniProt Q13177); assay: Selectivity interaction (33PanQinase Assay (Reaction Biology)) EUB0001107a PAK2
# Serine/threonine-protein kinase PAK 2 (Homo sapiens), sequence (Q13177 whole entry): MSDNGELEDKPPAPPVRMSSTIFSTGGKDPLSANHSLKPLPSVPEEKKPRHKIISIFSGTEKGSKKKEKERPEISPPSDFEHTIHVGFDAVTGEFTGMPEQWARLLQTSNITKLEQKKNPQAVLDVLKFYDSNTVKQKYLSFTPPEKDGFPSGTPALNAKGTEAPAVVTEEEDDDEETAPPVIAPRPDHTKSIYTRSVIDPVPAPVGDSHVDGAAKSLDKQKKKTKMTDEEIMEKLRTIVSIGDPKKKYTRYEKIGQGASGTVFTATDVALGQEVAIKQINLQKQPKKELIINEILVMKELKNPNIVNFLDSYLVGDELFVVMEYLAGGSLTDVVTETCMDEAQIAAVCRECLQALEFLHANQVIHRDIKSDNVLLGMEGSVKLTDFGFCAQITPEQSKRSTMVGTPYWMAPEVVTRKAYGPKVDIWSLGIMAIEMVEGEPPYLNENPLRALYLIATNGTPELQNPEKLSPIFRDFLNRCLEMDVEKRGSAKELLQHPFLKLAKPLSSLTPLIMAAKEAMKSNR
# [7] = biological target: 5-hydroxytryptamine receptor 1E (Homo sapiens) (UniProt P28566); assay: Selectivity interaction (GPCR panel (PDSP screen)) EUB0001072a HTR1E; conditions: at 10 µM
# [8] = biological target: D(1B) dopamine receptor (Homo sapiens) (UniProt P21918); assay: Selectivity interaction (GPCR panel (PDSP screen)) EUB0001072a DRD5; conditions: at 10 µM
# D(1B) dopamine receptor (Homo sapiens), sequence (P21918 whole entry): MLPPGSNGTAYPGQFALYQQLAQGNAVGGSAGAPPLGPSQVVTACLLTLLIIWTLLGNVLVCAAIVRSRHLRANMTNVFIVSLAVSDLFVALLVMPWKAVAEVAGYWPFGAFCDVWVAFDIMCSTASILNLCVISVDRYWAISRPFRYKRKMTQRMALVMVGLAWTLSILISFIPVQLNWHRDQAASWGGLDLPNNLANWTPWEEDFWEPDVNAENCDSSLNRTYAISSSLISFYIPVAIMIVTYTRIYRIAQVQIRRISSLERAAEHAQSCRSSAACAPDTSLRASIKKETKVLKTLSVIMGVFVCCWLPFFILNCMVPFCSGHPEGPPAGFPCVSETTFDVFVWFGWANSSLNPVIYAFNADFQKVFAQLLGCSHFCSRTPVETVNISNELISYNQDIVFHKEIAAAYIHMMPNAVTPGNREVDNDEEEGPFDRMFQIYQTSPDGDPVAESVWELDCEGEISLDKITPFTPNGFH
# [9] = biological target: T3, Muscarinic acetylcholine receptor M1 (Homo sapiens) (UniProt P11229); assay: Selectivity interaction (GPCR panel (PDSP screen)) EUB0001072a CHRM1; conditions: at 10 µM
# T3 sequence (whole entry): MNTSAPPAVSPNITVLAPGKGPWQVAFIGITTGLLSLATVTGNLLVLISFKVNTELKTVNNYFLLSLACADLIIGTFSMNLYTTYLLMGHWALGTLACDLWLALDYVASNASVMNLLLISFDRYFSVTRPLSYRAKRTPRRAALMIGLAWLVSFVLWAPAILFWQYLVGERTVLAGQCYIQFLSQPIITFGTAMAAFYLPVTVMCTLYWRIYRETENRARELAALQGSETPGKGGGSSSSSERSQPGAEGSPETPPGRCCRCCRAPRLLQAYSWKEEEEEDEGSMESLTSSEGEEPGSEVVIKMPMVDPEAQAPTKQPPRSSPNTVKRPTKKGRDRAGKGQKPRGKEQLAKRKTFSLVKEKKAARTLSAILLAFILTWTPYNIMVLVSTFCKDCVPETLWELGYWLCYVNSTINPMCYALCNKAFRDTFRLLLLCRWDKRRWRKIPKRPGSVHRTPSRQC
# [10] = biological target: Muscarinic acetylcholine receptor M4 (Homo sapiens) (UniProt P08173); assay: Selectivity interaction (GPCR panel (PDSP screen)) EUB0001072a CHRM4; conditions: at 10 µM
# [11] = biological target: 5-hydroxytryptamine receptor 2B (Homo sapiens, UniProt P41595); assay: Selectivity interaction (GPCR panel (PDSP screen)) EUB0001072a HTR2B; conditions: at 10 µM
# 5-hydroxytryptamine receptor 2B, sequence (P41595 whole entry): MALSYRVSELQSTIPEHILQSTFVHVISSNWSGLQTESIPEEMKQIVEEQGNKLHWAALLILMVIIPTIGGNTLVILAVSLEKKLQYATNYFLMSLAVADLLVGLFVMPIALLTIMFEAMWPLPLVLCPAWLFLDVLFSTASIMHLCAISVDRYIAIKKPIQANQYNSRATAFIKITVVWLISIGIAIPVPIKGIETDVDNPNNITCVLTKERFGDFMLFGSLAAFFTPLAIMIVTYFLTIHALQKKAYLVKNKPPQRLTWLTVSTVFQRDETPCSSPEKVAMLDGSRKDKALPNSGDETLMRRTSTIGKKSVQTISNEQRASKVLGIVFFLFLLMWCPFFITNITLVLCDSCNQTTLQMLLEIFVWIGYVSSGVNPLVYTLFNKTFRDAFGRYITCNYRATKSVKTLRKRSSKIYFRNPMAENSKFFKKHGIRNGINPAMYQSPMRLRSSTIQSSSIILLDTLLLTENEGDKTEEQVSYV
# [12] = biological target: 5-hydroxytryptamine receptor 1B (Homo sapiens) (UniProt P28222); assay: Selectivity interaction (GPCR panel (PDSP screen)) EUB0001072a HTR1B; conditions: at 10 µM
# 5-hydroxytryptamine receptor 1B (Homo sapiens), sequence (P28222 whole entry): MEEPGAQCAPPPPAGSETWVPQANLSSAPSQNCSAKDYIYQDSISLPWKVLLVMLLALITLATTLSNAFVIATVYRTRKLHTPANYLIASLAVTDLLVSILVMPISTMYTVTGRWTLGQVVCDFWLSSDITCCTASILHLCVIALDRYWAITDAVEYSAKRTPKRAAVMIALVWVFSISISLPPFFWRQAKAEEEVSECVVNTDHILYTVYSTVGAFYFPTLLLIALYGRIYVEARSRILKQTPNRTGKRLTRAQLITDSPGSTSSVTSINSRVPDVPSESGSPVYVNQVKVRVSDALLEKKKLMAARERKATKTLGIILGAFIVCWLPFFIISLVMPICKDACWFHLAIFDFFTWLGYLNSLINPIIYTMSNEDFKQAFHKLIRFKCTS
# [13] = biological target: 5-hydroxytryptamine receptor 1D (Homo sapiens) (UniProt P28221); assay: Selectivity interaction (GPCR panel (PDSP screen)) EUB0001072a HTR1D; conditions: at 10 µM
# 5-hydroxytryptamine receptor 1D (Homo sapiens), sequence (P28221 whole entry): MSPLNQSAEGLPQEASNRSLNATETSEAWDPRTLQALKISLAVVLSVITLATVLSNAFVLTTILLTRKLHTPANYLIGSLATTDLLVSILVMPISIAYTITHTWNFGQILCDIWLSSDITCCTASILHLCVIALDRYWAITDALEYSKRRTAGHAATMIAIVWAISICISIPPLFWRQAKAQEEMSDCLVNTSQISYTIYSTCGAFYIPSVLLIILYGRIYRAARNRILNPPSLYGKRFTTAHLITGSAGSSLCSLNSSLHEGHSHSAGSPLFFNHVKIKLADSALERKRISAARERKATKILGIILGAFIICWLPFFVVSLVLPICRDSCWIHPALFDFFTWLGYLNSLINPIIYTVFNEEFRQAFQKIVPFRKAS
# [14] = biological target: Histamine H3 receptor (Homo sapiens, UniProt Q9Y5N1); assay: Selectivity interaction (GPCR panel (PDSP screen)) EUB0001072a HRH3; conditions: at 10 µM
# [15] = biological target: Sodium-dependent dopamine transporter (Homo sapiens, UniProt Q01959); assay: Selectivity interaction (GPCR panel (PDSP screen)) EUB0001072a SLC6A3; conditions: at 10 µM
# [16] = biological target: 4-aminobutyrate aminotransferase, mitochondrial (Homo sapiens, UniProt P80404); assay: Selectivity interaction (GPCR panel (PDSP screen)) EUB0001072a ABAT; conditions: at 10 µM
# [17] = biological target: T4, Muscarinic acetylcholine receptor M2 (Homo sapiens) (UniProt P08172); assay: Selectivity interaction (GPCR panel (PDSP screen)) EUB0001072a CHRM2; conditions: at 10 µM
# T4 sequence (whole entry): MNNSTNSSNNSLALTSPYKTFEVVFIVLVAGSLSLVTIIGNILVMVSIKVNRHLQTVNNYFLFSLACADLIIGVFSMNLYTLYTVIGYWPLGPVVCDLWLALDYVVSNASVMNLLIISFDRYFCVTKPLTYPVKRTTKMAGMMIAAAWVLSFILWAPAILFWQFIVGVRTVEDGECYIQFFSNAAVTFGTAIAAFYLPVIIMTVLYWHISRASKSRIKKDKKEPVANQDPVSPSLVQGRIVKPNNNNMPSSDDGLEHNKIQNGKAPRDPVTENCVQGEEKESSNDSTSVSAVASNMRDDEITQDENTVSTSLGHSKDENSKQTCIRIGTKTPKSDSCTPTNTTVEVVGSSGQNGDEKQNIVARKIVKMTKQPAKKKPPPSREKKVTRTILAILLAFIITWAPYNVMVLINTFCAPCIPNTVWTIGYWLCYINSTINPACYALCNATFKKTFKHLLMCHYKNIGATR
# [18] = biological target: Alpha-2B adrenergic receptor (Homo sapiens) (UniProt P18089); assay: Selectivity interaction (GPCR panel (PDSP screen)) EUB0001072a ADRA2B; conditions: at 10 µM
# [19] = biological target: T5, Gamma-aminobutyric acid receptor subunit alpha-1 (Homo sapiens) (UniProt P14867); assay: (§1) Selectivity interaction (GPCR panel (PDSP screen)) EUB0001072a GABRA1; conditions: at 10 µM
# T5 sequence (whole entry): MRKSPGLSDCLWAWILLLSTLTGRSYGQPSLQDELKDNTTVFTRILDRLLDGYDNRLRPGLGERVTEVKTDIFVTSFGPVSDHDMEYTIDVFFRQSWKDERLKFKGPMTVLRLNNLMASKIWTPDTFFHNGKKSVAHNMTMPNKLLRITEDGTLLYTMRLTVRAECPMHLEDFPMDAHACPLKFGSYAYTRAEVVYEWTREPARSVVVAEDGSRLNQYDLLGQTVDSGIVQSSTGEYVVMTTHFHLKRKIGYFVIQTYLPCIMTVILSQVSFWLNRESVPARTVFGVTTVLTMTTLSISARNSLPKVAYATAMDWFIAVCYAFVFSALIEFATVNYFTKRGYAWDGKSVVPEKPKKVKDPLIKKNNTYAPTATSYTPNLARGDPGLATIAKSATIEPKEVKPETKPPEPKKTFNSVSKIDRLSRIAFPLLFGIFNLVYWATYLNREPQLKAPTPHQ
# [20] = biological target: T5, Gamma-aminobutyric acid receptor subunit alpha-1 (Homo sapiens); assay: as §1; conditions: at 10 µM; remark: listed apart in the source
# [21] = biological target: 5-hydroxytryptamine receptor 2A (Homo sapiens, UniProt P28223); assay: Selectivity interaction (GPCR panel (PDSP screen)) EUB0001072a HTR2A; conditions: at 10 µM
# 5-hydroxytryptamine receptor 2A, sequence (P28223 whole entry): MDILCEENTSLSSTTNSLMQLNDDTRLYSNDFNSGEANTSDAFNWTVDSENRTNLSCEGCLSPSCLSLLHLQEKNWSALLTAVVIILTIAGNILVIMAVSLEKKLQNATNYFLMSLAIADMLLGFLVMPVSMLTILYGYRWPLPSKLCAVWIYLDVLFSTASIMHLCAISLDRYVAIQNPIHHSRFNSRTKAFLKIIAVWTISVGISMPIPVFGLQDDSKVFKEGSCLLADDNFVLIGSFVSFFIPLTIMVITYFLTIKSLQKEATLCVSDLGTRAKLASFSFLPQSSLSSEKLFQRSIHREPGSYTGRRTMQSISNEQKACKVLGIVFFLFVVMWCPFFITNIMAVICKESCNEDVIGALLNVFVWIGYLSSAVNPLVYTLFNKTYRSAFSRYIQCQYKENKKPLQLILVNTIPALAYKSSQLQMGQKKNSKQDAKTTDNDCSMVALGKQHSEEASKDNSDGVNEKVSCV
# [22] = biological target: Muscarinic acetylcholine receptor M3 (Homo sapiens, UniProt P20309); assay: Selectivity interaction (GPCR panel (PDSP screen)) EUB0001072a CHRM3; conditions: at 10 µM
# Muscarinic acetylcholine receptor M3, sequence (P20309 whole entry, looked up): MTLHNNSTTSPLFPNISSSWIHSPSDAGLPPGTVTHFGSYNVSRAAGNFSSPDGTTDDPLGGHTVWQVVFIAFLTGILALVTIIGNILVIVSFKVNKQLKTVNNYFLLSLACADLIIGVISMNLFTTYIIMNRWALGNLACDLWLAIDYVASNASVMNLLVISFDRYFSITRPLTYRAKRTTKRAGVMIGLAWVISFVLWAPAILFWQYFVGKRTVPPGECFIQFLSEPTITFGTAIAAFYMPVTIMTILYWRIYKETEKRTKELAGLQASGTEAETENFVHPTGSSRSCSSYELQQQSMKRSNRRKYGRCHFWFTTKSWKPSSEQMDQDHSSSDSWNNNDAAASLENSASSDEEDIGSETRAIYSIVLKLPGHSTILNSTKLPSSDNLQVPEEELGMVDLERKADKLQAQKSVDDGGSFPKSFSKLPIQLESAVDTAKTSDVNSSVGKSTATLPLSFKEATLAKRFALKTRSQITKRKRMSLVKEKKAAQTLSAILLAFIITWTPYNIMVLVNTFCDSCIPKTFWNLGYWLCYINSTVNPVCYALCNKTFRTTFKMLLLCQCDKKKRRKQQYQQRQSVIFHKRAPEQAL
# [23] = biological target: T6, 5-hydroxytryptamine receptor 1A (Homo sapiens) (UniProt P08908); assay: Selectivity interaction (GPCR panel (PDSP screen)) EUB0001072a HTR1A; conditions: at 10 µM
# T6 sequence (whole entry): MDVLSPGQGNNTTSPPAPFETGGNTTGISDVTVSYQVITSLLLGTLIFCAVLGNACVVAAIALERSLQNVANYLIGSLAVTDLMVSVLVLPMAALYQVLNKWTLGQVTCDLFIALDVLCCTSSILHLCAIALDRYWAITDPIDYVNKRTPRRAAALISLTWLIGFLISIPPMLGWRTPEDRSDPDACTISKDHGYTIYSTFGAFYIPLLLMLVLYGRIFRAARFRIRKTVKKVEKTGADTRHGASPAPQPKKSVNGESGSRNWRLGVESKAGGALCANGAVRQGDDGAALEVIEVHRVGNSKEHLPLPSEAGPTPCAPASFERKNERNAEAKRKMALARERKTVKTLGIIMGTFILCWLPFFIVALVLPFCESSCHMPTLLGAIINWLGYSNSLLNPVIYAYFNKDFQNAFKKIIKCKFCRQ
# [24] = biological target: Muscarinic acetylcholine receptor M5 (Homo sapiens) (UniProt P08912); assay: Selectivity interaction (GPCR panel (PDSP screen)) EUB0001072a CHRM5; conditions: at 10 µM
# [25] = biological target: 5-hydroxytryptamine receptor 5A (Homo sapiens) (UniProt P47898); assay: Selectivity interaction (GPCR panel (PDSP screen)) EUB0001072a HTR5A; conditions: at 10 µM
compound,measurement,setting,value
CN(C(=O)c1ccccc1)c1cc(N(C)c2ccc3c(c2)CCc2ccc(C(=O)NCCN4CCOCC4)cc2C3=O)ccc1F,% of control,[1],45%
same,% of control,[2],50%
same,% of control,[3],47%
CNc1ncc2cc(-c3ccc(-c4ncccc4F)cc3Cl)c(=O)n(C[C@H]3OC[C@H](N)CO3)c2n1,% of residual activity,[4],8%
same,% of residual activity,[5],9%
same,% of residual activity,[6],10%
CNC(=N)NCCC[C@H](NC(=O)[C@H](CC(C)C)NC(=O)NNC(=O)[C@H](Cc1ccccc1)NC(=O)[C@H](CO)NC(=O)[C@H](CC(N)=O)NC(=O)[C@@H](Cc1cccnc1)NC(=O)[C@H](N)Cc1ccc(O)cc1)C(=O)NCC(N)=O (H-[dY][d3Pal]NSF[azaGly]L[Arg(Me)]G-NH2),% of inhibition,[7],27.9%
same,% of inhibition,[8],29.2%
same,% of inhibition,[9],15.1%
same,% of inhibition,[10],18.5%
same,% of inhibition,[11],11.3%
same,% of inhibition,[12],31%
same,% of inhibition,[13],12.4%
same,% of inhibition,[14],12.5%
same,% of inhibition,[15],10.4%
same,% of inhibition,[16],15.6%
same,% of inhibition,[17],40.7%
same,% of inhibition,[18],14.5%
same,% of inhibition,[19],15.5%
same,% of inhibition,[20],12.3%
same,% of inhibition,[21],16.9%
same,% of inhibition,[22],24.7%
same,% of inhibition,[23],30.9%
same,% of inhibition,[24],12.3%
same,% of inhibition,[25],16.3%
